Assay: AUC in non-small-cell lung cancer/colorectal cancer patient serum at 960 mg, po
Assay type: ADME, cell-free
Parameters: dose 960 mg
Details: human

AUC: 65300 ng·h/mL
Compound: C=CC(=O)N1CCN(c2nc(=O)n(-c3c(C)ccnc3C(C)C)c3nc(-c4c(O)cccc4F)c(F)cc23)[C@@H](C)C1 [SOTORASIB]

From ChEMBL document CHEMBL4834488, “Improved Synthesis of New FDA-Approved Treatment for KRAS G12C Mutation in Non-small Cell Lung Cancer” (ACS Med Chem Lett, 2021)
